The record followed here is PubChem BioAssay AID651579 (Sanford-Burnham Center for Chemical Genomics, 2012).

Calls of active or inactive are those of the source. How the calls were made is not given here.

This test has as its system C. elegans hsp-16.2 reporter, heat-shock counterscreen. Description: inhibitors of heat-induced hsp-16.2 expression – whole organism, C. elegans, counter-screen for SKN-1 inhibitor project, dose response (AID 651579).

As usually defined, the IC50 is the concentration needed to halve the response being measured. With `Fc1ccc(COc2ccc(-c3nnco3)cc2)c(Cl)c1`, the IC50 is > 64 µM (inactive).

Regarding `Brc1ccc2nc(N3CCCC3)sc2c1`, the IC50 was > 64 µM (inactive).

Regarding `O=C(Nc1ccc(CN2CCOCC2)cc1)c1cc2ccccc2o1`, the IC50 is 4.25 µM.

As to `COc1cc(CNC(C)(C)CO)cc(Br)c1OCc1ccc(Cl)cc1`, the IC50 is > 64 µM (inactive).

For `Cc1ccc(-c2noc(-c3cccs3)n2)cc1`, the IC50 was > 64 µM (inactive).

Turning to `O=C(Nc1ccc(Cl)cn1)c1ccccc1F`, the IC50 was > 64 µM (inactive).

Regarding `CC(C)(C)N=C1NN=C(c2ccc(Cl)cc2)CS1`, the IC50 is > 64 µM (inactive).

For `Cc1ccccc1-c1noc(-c2cccs2)n1`, the IC50 is > 64 µM (inactive).

As for `O=C(/C=C/c1ccc(Cl)cc1)Nc1ccc(CN2CCOCC2)cc1`, the IC50 was > 64 µM (inactive).

Consider `c1ccc(Nc2nc(-c3cccs3)cs2)nc1`, for which the IC50 was > 64 µM (inactive).

Turning to `Cc1ccc(CSc2nnc(-c3ccco3)o2)cc1`, the IC50 was 30.6 µM.

As to `O=C(Nc1nc(-c2ccc(Cl)s2)cs1)c1ccccc1`, the IC50 is 22.6 µM.

In the case of `FCCCOc1ccc(-c2nccc(-c3ccccn3)n2)cc1`, the IC50 was > 64 µM (inactive).

As to `Cc1ccc(N=C/C(C(=O)C(F)(F)F)=C(\O)c2ccco2)cc1Cl`, the IC50 is 37.7 µM.

Take `Cc1nc2ccccc2cc1OCc1ccc(F)cc1`: the IC50 is > 64 µM (inactive).

Consider `Clc1ccccc1-c1nc(-c2ccncc2)no1`, for which the IC50 was > 64 µM (inactive).

Take `O=[N+]([O-])c1ccc(COc2ccc(CN3CCCC3)cc2)cc1`: the IC50 is > 64 µM (inactive).

`Brc1ccc(-c2nnc(-c3ccco3)o2)cc1`: the IC50 is > 64 µM (inactive).

In the case of `CCOc1ccc(-c2nc(-c3cccnc3)no2)cc1`, the IC50 was > 64 µM (inactive).

On to `O=C(Nc1nc2c(ccc3ccccc32)s1)c1ccco1`, for which the IC50 was > 64 µM (inactive).

As to `CC/C(=C\c1ccc(Cl)cc1)c1ccncc1`, the IC50 is > 64 µM (inactive).

As for `Clc1ccccc1-c1nnc(-c2ccccc2Cl)o1`, the IC50 was > 64 µM (inactive).

Regarding `O=C(Nc1ccc(SC(F)F)cc1)c1ccccc1F`, the IC50 was > 64 µM (inactive).

As for `CCN(CC)c1ccc(/C=C2/C(=O)c3ccc(C(=O)O)cc3C2=O)cc1`, the IC50 was > 64 µM (inactive).

As for `O=C(/C=C/Nc1ccc(F)c(F)c1)c1cccs1`, the IC50 was > 64 µM (inactive).

As for `Brc1ccc(CSc2nnc(-c3ccco3)o2)cc1`, the IC50 was > 64 µM (inactive).

`c1ccc(-c2csc(Nc3ccccn3)n2)cc1`: the IC50 was > 64 µM (inactive).

Take `O=C(C=Cc1ccccc1)CC(c1ccccc1)N1CCOCC1` (stereo unspecified): the IC50 was > 64 µM (inactive).

As for `Brc1ccc(CSc2nnc(-c3cccnc3)o2)cc1`, the IC50 is 45.4 µM.

Regarding `Clc1ccsc1-c1ccc2ccccc2n1`, the IC50 was > 64 µM (inactive).

On to `O=[N+]([O-])c1ccc(NCc2ccc(Cl)cc2)nc1`, for which the IC50 was > 64 µM (inactive).

In the case of `Clc1ccc(C=Cc2ccccn2)c(Cl)c1`, the IC50 is 22.9 µM.

In the case of `CCOc1cc(CNC2CCCC2)cc(Cl)c1OCc1ccc(F)cc1`, the IC50 was > 64 µM (inactive).

Regarding `Fc1ccc(-c2csc(-c3ccncc3)n2)cc1`, the IC50 was > 64 µM (inactive).

Turning to `COc1ccc2c(c1)OC/C(=C/c1cccs1)C2=O`, the IC50 is > 64 µM (inactive).

Consider `O=C(Nc1ccc(OC(F)F)c(Cl)c1)c1ccccn1`, for which the IC50 was > 64 µM (inactive).

For the compound `Fc1ccc(-n2nnc(-c3cccnc3Cl)n2)cc1`, the IC50 was > 64 µM (inactive).

`Brc1ccc2oc(-c3ccn[nH]3)cc2c1`: the IC50 is > 64 µM (inactive).

Take `O=C(/C=C/Nc1ccc(Br)cc1F)c1ccco1`: the IC50 was > 64 µM (inactive).

Take `O=C(/C=C/Nc1ccccc1F)c1cccs1`: the IC50 is > 64 µM (inactive).

On to `O=C(Nc1nccs1)c1ccc2ccccc2n1`, for which the IC50 was > 64 µM (inactive).

Take `CN(C)CC(O)c1ccc(C=Cc2ccc(Cl)cc2)cc1` (stereo unspecified): the IC50 is > 64 µM (inactive).

As for `O=c1cc(-c2ccc(F)cc2)oc2ccccc12`, the IC50 is > 64 µM (inactive).

Regarding `C(=C\c1nnc(-c2cccs2)o1)/c1ccccc1`, the IC50 is > 64 µM (inactive).

As for `O=[N+]([O-])c1ccc2cn(-c3ccccc3)nc2c1`, the IC50 is > 64 µM (inactive).

As for `c1ccc(-c2nc3cc4ccccc4cc3[nH]2)nc1`, the IC50 is 5.91 µM.

For the compound `Clc1ccc(OCc2cnc(Cl)s2)cc1`, the IC50 is > 64 µM (inactive).

Take `c1ccc2sc(SCc3ccc(-c4nnco4)cc3)nc2c1`: the IC50 is > 64 µM (inactive).

`CC1=NN(c2ccccc2)C(=O)/C1=C\C=C1/N(C)c2ccccc2C1(C)C`: the IC50 was > 64 µM (inactive).

Regarding `Cc1c(N2C(=O)/C(=C\c3ccc(N(C)C)cc3)N(C)C2=S)c(=O)n(-c2ccccc2)n1C`, the IC50 was > 64 µM (inactive).

On to `CN1CCN(c2ccc(NC(=O)c3ccc(Oc4ccccc4)cc3)cc2)CC1`, for which the IC50 is > 64 µM (inactive).

Regarding `O=C(/C=C/Nc1ccc(F)cc1F)c1cccs1`, the IC50 was 21.4 µM.

Take `O=C(NCc1ccncc1)c1ccc(-c2ccc(F)c(F)c2)c2ccoc12`: the IC50 was > 64 µM (inactive).

As to `CCOc1cc(CNC2CCCC2)cc(Cl)c1OCc1ccccc1`, the IC50 was > 64 µM (inactive).

Consider `O=C(/C=C/c1cccs1)c1ccc(Br)cc1`, for which the IC50 was > 64 µM (inactive).

Turning to `Fc1ccc(CSc2ncnc3ccccc23)cc1`, the IC50 is > 64 µM (inactive).

Turning to `Cn1c(=O)c2c(-c3ccccc3)n(-c3ccc(N)cc3)cc2n(C)c1=O`, the IC50 was 3.62 µM.

As for `O=C(Nc1nc(-c2ccc(Cl)s2)cs1)c1cccs1`, the IC50 was > 64 µM (inactive).

`O=C(Nc1nccs1)c1ccc2ccccc2c1`: the IC50 was > 64 µM (inactive).

Regarding `Clc1ccc(C#Cc2cccnc2)cc1`, the half-inhibitory concentration (IC50) was 2.57 µM.

Turning to `C(=C\c1nc(-c2ccncc2)no1)/c1ccccc1`, the IC50 was > 64 µM (inactive).

For the compound `CCCCOc1ccc(C(=O)OC2CC(C)N(C)CC2C)cc1` (stereo unspecified), the IC50 was > 64 µM (inactive).

Take `Clc1ccc(-c2nnc(-c3ccco3)o2)cc1`: the IC50 was 2.68 µM.

With `O=C(Nc1nc(-c2ccc(Cl)s2)cs1)c1ccco1`, the IC50 is > 64 µM (inactive).

Take `c1ccc(-c2csc(-c3ccncc3)n2)cc1`: the IC50 is > 64 µM (inactive).

For `CSc1cccc(NC(=O)c2cccc3cccnc23)c1`, the IC50 was 46.3 µM.

On to `Fc1ccc(Cn2nnc(-c3ccc(CN4CCOCC4)cc3)n2)cc1`, for which the IC50 was 4.88 µM.

In the case of `Fc1ccc(-c2cnc(-c3cccs3)o2)cc1`, the IC50 was > 64 µM (inactive).

As for `Clc1ccc(C=Cc2ccccn2)cc1`, the IC50 was > 64 µM (inactive).

`CCN(CC)Cc1ccc(NC(=O)c2sc3cc(Cl)ccc3c2Cl)cc1`: the IC50 was > 64 µM (inactive).

Turning to `CCOC(=O)Nc1nc(-c2ccc(F)cc2F)cs1`, the IC50 is 47.7 µM.

As to `CCOC(=O)c1c(-c2ccc(-c3ccccc3)cc2)csc1NC(=O)CNCCN(C)C`, the IC50 was > 64 µM (inactive).

As to `Brc1ccc(-c2nc(-c3ccccc3)no2)o1`, the IC50 was > 64 µM (inactive).

With `CCc1ccc(C(=O)Nc2ccc3nc(C)ccc3c2)cc1`, the IC50 is > 64 µM (inactive).

In the case of `O=[N+]([O-])c1ccc2nc(-c3ccccc3)oc2c1`, the IC50 was > 64 µM (inactive).

Take `Cc1ccc(Nc2nc(-c3cccs3)cs2)nc1`: the IC50 was 13.6 µM.

As to `Cc1oc(-c2ccc(-c3ccccc3)cc2)nc1CN(C)C1CCOC1` (stereo unspecified), the IC50 is > 64 µM (inactive).

Turning to `O=C(CC(O)(C(F)(F)F)C(F)(F)F)Nc1ccc(Cl)c(Cl)c1`, the IC50 is > 64 µM (inactive).

Regarding `O=C(N=C1N=C2C=CC(Br)=CN2Cc2ccccc21)c1ccc([N+](=O)[O-])cc1[N+](=O)[O-]`, the IC50 was > 64 µM (inactive).

With `Clc1ccc(OCCCc2nc(-c3ccncc3)no2)c(Cl)c1`, the IC50 is > 64 µM (inactive).

Consider `CCc1ccc(-c2nc(-c3ccncc3)no2)cc1`, for which the IC50 is 33.5 µM.

`Clc1ccc2nc(-c3ccc(Br)s3)cn2c1`: the IC50 is 15.9 µM.

Regarding `c1ccc(-c2ccc(-n3ccnc3)cc2)cc1`, the IC50 was 48.4 µM.

On to `COc1cc(CNC(C)c2ccccc2)cc(Br)c1OCc1ccc(F)cc1` (stereo unspecified), for which the IC50 is > 64 µM (inactive).

For the compound `C=CCSc1ncc(-c2ccccc2)cn1`, the IC50 was > 64 µM (inactive).

As for `Cc1ccc2nc(-c3ccc(NC(=S)NC4CC(C)(C)NC(C)(C)C4)cc3)sc2c1`, the IC50 is > 64 µM (inactive).

For `O=C(/C=C/c1ccc(Br)cc1)c1ccc(NC2=NCCCS2)cc1`, the IC50 was > 64 µM (inactive).

Turning to `CCc1nc2c(OCc3ccc(C(F)(F)F)cc3)cccn2c1N(C)C(=O)c1ccncc1`, the IC50 was 49.9 µM.

`COc1cc(CNC2CCCC2)cc(Cl)c1OCc1ccc(F)cc1`: the IC50 is 42.7 µM.

As to `N=C1C=CC(=C(c2ccc(N)cc2)c2ccc(N)cc2)C=C1`, the IC50 was > 64 µM (inactive).

Take `O=C(c1cccs1)c1ccc(-c2cccs2)s1`: the IC50 was > 64 µM (inactive).

With `O=[N+]([O-])c1ccc(OCc2cnc(Cl)s2)cc1`, the IC50 is 42.3 µM.

Turning to `CCN(CC)c1ccc(/C=C2\C(=O)c3ccc(C(=O)O)cc3C2=O)cc1`, the IC50 is > 64 µM (inactive).

Regarding `CC(C)c1ccc(C(=O)Nc2ccc(CN3CCOCC3)cc2)cc1`, the IC50 was > 64 µM (inactive).

Turning to `COc1ccc(C(=O)Nc2nc(-c3cccs3)cs2)cc1`, the IC50 was > 64 µM (inactive).

Turning to `CN(C)C(CNC(=O)CCc1nc2cc(Cl)ccc2n(Cc2ccccc2)c1=O)c1ccccc1` (stereo unspecified), the IC50 is > 64 µM (inactive).

`Clc1ccc(Cn2nnc(-c3ccccc3)n2)cc1`: the IC50 was > 64 µM (inactive).

In the case of `O=C(C=Cc1cccs1)c1ccc(Cl)s1`, the IC50 is > 64 µM (inactive).

On to `CSc1ccc(-c2cc(=O)c3ccccc3o2)cc1`, for which the IC50 is > 64 µM (inactive).

As for `CCOc1cc(CNCCSc2nnnn2C)cc(Br)c1OCc1ccc(F)cc1`, the IC50 was > 64 µM (inactive).

Take `Fc1ccc(-c2csc(Nc3ccccn3)n2)cc1`: the IC50 is > 64 µM (inactive).
